This passage reports tumor growth results from patent publication US20230391868A1, “COMPOSITIONS FOR AND METHODS OF TREATING CANCER” (The George Washington University, priority 2022, published 2023).

For this assay, the system named is SM1 melanoma tumors. Put plainly: SM1 melanoma tumor growth in vivo. On the set-up: species or system mouse. The note with it: SM1-bearing C57/Bl6 mice, NextA 20 mg/kg intraperitoneally, anti-CD47 100 μg intratumorally, every other day, vs vehicle control. The protocol: Animal experiments were performed in accordance with protocol A354 approved by the Institutional Care and Use Committee (IACUC) at The George Washington University. Female C57BL/6 mice (4-6 weeks old) were purchased from Charles River Laboratories (Wilmington, Massachusetts, USA). Mice were injected subcutaneously in their right flank with 10^6 in vivo passaged SM1 melanoma cells suspended in 100 μL of PBS (Corning, 21-040-CV) at day 0. Cages were randomly assigned to different treatment groups, and mice were treated intraperitoneally with 100 μL of vehicle control or NextA at 20 mg/kg every other day when tumors became palpable, which was a week after tumor implantation.
Six days after the first NextA treatment, mice were also treated intratumorally with 100 μg of αCD47 every two days (clone miap301, BE0270, BioXCell, Lebanon, NH, USA) until the end of the study. Tumor measurements were taken every other day using caliper measurements and calculated using the formula L×W^2/2. All animals were routinely monitored for early signs of toxicity. […]
First, C57/Bl6 mice were inoculated with SM1 melanoma cells (n=15 mice per group). […] The concentrations of NextA and anti-CD47 were determined by performing drug and antibody titrations. Tumor growth was monitored every other day from when the tumors became palpable until the experimental endpoint.

Regarding `CCCCN(Cc1ccc(C(=O)NO)cc1)C(=O)Nc1ccccc1` [NextA, Nexturastat A], the tumor growth entry is “moderately decreased tumor growth”. The tumor growth result (listed as Nexturastat A) was “enhanced the antitumor efficacy of anti-CD47”.
